The subject of one experiment is HBeAg. The experiment in a line: microbe, parasite or virus in culture. It counts as cell-based, HBV. Particulars: ACV, concentration not given. The protocol: (§1) The cultures were passenged by trypsinization every 4 days.
(§2) HBsAg and HBeAg in the culture medium were determined according to the protocol respectively. The culture medium (200 μl) was absorbed on beads containing antibody to HBsAg/HBeAg in the presence of the conjugate. After overnight incubation, the beads were washed 6 times with […] PBS containing 0.05% Tween-80 and incubated with 200 μl of [^125 I] anti-HBs(Hbe) overnight. The beads were washed 6 times as above. The amounts HBsAg/HBeAg as measure of cpm of [^125 I] labeled immunocomplex was counted on γ-counter.

The subject of a further experiment is HBsAg. Kind of experiment: microbe, parasite or virus in culture. In kind it is cell-based, HBV. The following applies: ACV, concentration not given. The method, then: as §1, §2
The test system of another experiment is DHBV. The experiment in a line: anti-DHBV test in ducks (serum DHBV DNA dot blot). In kind it is in vivo, DHBV in Peking (Beijing) ducks. The following applies: for DHBV DNA, grayness of the dot: 50 mg/kg, X ± SD, n = 7. The protocol:
One-day-old ducklings were infected with a 200 μl intravenous injection of DHBV-positive serum containing 10^11 viral genome equivalents per milliliter. Treatment began when ducklings were 7 days old. A total 89 seven-day-old viraemic ducks were distributed at random into five groups. […] Post-treatment follow-up was carried over a period of 5 days. Blood samples were obtained repectively from the leg vein of all ducks and stored at -70° C. after serum separation, prior to treatment, weekly during the treatment, and for 5 days after cessation of treatment. They were screened for presence of DHBV DNA by dot blot hybridization.
DHBV DNA in serum was analyzed by molecular hybridization using full length DHBV DNA clones in PB325. The DHBV DNA insert was purified by agarose gel electrophoresis after digestion with EcoRI. The DHBV DNA was radiolabeled with α^32 P-dCTP random oligopriming with Klenow fragment. Dot blot hybridization was carried out by the method of Scotto et al. Briefly, an aliquot (200 μl) serum was spotted onto a nylon membrane (Hybond-N, Amersham International, England) in dot blot manifold and denatured with 0.5 M NaOH--NaCl at room temperature for 30 min. Each spotted sample was neutralized in 1M Tris.HCl-1.5M NaCl (pH8.0). The DNA on the membrane was fixed by heating at 80° C. for 2 h, and prehybridization at 37° C. overnight in 50% formamide, 5×Denhardt's, 6×SSC,[…], 0.5% SDS and 10 mg/ml of calf thymus DNA. Hybridization was initiated by adding DHBV [^32 P] DNA probes at 10^6 cpm/ml at the same prehybridization conditions overnight. The membrane was washed in 3×SSC-0.1% SDS at room temperature, 42° C. and 65° C. for 10 min respectively. After hybridization the membranes were air-dried and exposed for periods of up to 14 days at -70° C. with Kodak film with an enhancer screen. The amount of viral DNA were assayed by both densitometry and image analysis of autoradiographic membranes.

The test system of experiment [1] is lymphocyte proliferation induced by Con A. The following applies: 50 mg/kg; for RPI: Normal = 100. The method, then:
mice. Five-wk-old female C57BL/6 mice were used throughout the experiments. All mice were housed in sterile cages in a room supplied with filtrated air. They were given pelleted food and chlorinated water ad libitum.
Infection with LP-BM5 MuLV. Cell-free supernatants of LP-BM5 MULV were prepared by cocultivating G6 SC-1 clones with normal SC-1 cells for 5 days. Mice were inoculated intraperitoneally with 150 μl of stock solution containing 10^3,4×C plaque-forming units and 10^2,3 Mink-cell focks-forming units per […].
Then, the spleens were collected. Cell suspensions were prepared by repeated passage of whole spleen through a pipette, the capsule and debris were allowed to settle, and the supernatants containing cells were collected and washed twice in PBS. […] Incubation continued for 16 hr, then cells were collected on filter that was determined by a scintillation counter.

The target in the next experiment is T1, HBV DNA polymerase (Hepatitis B virus genotype D subtype ayw, UniProt P03156).
T1 construct: HBV DNA polymerase in viral particles; host or cells: viral particles
T1 sequence (P03156 whole entry): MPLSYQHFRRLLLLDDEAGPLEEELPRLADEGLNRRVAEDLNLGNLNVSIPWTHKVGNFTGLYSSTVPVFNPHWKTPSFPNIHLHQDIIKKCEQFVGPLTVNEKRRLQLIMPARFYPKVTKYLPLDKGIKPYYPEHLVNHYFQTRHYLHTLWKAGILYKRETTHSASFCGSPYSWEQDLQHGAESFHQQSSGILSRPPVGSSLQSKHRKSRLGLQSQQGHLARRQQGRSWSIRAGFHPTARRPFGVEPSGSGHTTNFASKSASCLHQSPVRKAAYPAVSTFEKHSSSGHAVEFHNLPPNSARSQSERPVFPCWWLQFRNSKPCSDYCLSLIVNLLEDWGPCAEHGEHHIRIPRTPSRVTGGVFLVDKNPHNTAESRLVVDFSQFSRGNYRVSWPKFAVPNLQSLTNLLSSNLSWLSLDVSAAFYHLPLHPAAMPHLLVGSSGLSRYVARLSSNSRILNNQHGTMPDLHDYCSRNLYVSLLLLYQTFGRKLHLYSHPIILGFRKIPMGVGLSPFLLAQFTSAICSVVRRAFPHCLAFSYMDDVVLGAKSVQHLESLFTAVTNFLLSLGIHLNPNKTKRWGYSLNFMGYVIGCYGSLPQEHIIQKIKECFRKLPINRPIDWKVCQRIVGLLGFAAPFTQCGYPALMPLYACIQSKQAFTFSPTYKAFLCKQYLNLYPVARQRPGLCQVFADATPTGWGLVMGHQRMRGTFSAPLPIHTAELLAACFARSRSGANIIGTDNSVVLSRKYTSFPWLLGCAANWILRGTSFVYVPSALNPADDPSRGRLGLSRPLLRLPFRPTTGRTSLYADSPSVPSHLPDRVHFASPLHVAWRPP
The experiment in a line: HBV DNA polymerase assay. It counts as biochemical. The protocol: Assay was performed as described by Hantz (Antiviral Res 4(1984) 187-199) with minor modification. The Reaction mixture consisted of HBV DNA polymerase in viral particles in 200 mmol.l^-1 of Tris-HCl pH 7.6, 200 mmol.l^-1 of NH4 Cl. 50 mmol.l^-1 of MgCl2, 10 mmol.l^-1 of 2-mercaptoethanol, 2% Nonidet P-40 and 300 μmol.l^-1 concentrations of deoxynucleotide triphosphates except for [^3 H]dTTP, which was included in the assay at 20 μci.ml^-1. […] The mixtures were incubated at 37° C. for 4 h prior to spotting on Whatman No.3 filter paper which was washed 4 times with cold 5% trichloroacitic acid, then with ethanol. The HBV DNA polymerase activity as measure of the incorperation of the radionucleotide into the viral DNA was counted in a Recbeta (LKB)scintilation counter.

The values that follow come from US6331565A, “Dicaffeoylquinic acid for treating hepatitis B and the diseases associated with retrovirus, and the new caffeoylquinic acid derivatives” (Institute of Radiation Medicine Academy of Military Medical …, priority 1996, dated 2001).

As usually defined, the IC50 is the concentration that inhibits the measured activity by half. High values mean weaker potency in that assay, low ones greater potency in that assay.

Where two headings read alike, the source gives them in different places.

Turning to `Nc1nc2c(ncn2COCCO)c(=O)[nH]1` [ACV, acyclovir, reference compound], the “HBeAg Inhibit rate (%)” value in the experiment with HBeAg (day 4) is recorded as 26.22 ± 1.17%; in the experiment with HBeAg (day 8) it was 26.75 ± 1.21%; in the experiment on HBeAg (day 12), 3.71 ± 1.36%. Moreover, the HBeAg cpm with HBeAg (day 4) was 3910.9 ± 57.6 cpm; with HBeAg (day 8), 6101.9 ± 96.17 cpm; with HBeAg (day 12), 8194.1 ± 111.5 cpm. Also, the “HBsAg Inhibit rate (%)” value came out at 48.20% in the experiment with HBsAg (day 4), 29.54 ± 5.15% with HBsAg (day 8) and 23.22% in the experiment on HBsAg (day 12). In addition, the figures for the HBsAg cpm in the experiment on HBsAg (day 4), with HBsAg (day 8) and in the experiment on HBsAg (day 12) were 710.1 ± 65.7 cpm, 870.1 ± 51.1 cpm and 622.5 ± 58.8 cpm, respectively. Besides, the “DHBV DNA, grayness of the dot” value in the experiment on DHBV (P5 (day 5 after withdrawal)) came to 9.0 ± 8.6 K Grayness; in the experiment with DHBV (day 0 (before treatment), oral), 6.3 ± 4.2 K Grayness; in the experiment on DHBV (day 7, oral), 0.1 ± 0.3 K Grayness; in the experiment with DHBV (day 14, oral), 0.0 ± 0 K Grayness. The “viraemia returned to a level higher than that of pretreatment by” value in the experiment with DHBV (day 5 after cessation of treatment) is 43%. In the experiment with DHBV (during the 14 days of therapy, all 7 treated birds), the “DHBV DNA from the sera” value was “substantial decrease of DHBV DNA from the sera”.
Consider `Cc1cn([C@H]2C[C@H](N=[N+]=[N-])[C@@H](CO)O2)c(=O)[nH]c1=O` [AZT], for which the results for the cpm in experiment [1] (Con A (5 μg/ml)) and in experiment [1] (Con A ([…])) were 53287 ± 2043 cpm and 33212 ± 2609 cpm, respectively. In addition, the RPI in experiment [1] (Con A (5 μg/ml)) is 95.10; in experiment [1] (Con A ([…])), 93.21.
Turning to `O=C(O)P(=O)(O)O` [PFA, reference compound], at HBV DNA polymerase, the IC50 was 184 µM and the “inhibitory effect on HBV DNAp” value is listed as “dose-dependent inhibitory effect”. This compound also displayed a cpm at HBV DNA polymerase (1 μg/ml) of 10267 ± 77 cpm. The compound further returned a cpm on HBV DNA polymerase (10 μg/ml) of 5495 ± 218 cpm. The cpm on HBV DNA polymerase (100 μg/ml) is listed as 3065 ± 67 cpm. Further, the cpm at HBV DNA polymerase (1000 μg/ml) is given as 2377 ± 329 cpm. In addition, on HBV DNA polymerase (read-out: Inhibitory rate (%)), the inhibition at 1 µg/mL is -5.2 ± 15.3%, the inhibition at 10 µg/mL was found to be 44.4 ± 2.3%, the inhibition at 100 µg/mL is 69.7 ± 0.7% and the inhibition at 1000 µg/mL came to 76.8 ± 3.4%.
